According to patent publication US11384120B2, “Peptide capable of binding to biomarker for inflammatory and metabolic diseases, and use thereof” (NIBEC CO., LTD., priority 2019, dated 2022):
Read-outs that look alike come from different tables or passages of the source.

Assays:
IL-6 = IL-6 expression by ELISA in palmitic acid-treated HepG2 cells; assay type: cell-based; conditions: HepG2, peptide 200 μM 2 hours, then palmitic acid 200 μM 24 hours, medium, FIG. 4
Description: HepG2 cells were plated at a density of 70% on a 6-well plate. After 16 hours, the cells were starved using DMEM medium containing 0.5% FBS for 2 hours. The cells were treated with a medium containing each of the peptides of SEQ ID NOS: 1 to 6 at a concentration of 200 μM for 2 hours, and were further treated with palmitic acid at a concentration of 200 μM to induce an inflammatory response for 24 hours. Each medium was collected, and the level of expression of IL-6, an inflammatory cytokine, was detected with an ELISA kit (R&D, Minneapolis, Minn., USA).

RAW 264.7 cells [1] = test system: RAW 264.7 cells
Description: (§1) RAW 264.7 cells were seeded at a density of 2×10^4/well on a 6-well plate. After 24 hours, replacement was conducted with DMEM medium containing 0.5% FBS. The cells were treated with 50 μM of each of fluorescence (rhodamine)-labeled peptides of SEQ ID NOS: 1, 5 and 6. After 20 minutes, the cells were fixed and observed with a confocal microscope.

RAW 264.7 cells [2] = assay: cell permeability of rhodamine-labeled peptides by confocal microscopy; conditions: RAW 264.7, rhodamine-labeled peptide 50 μM, 20 minutes, FIG. 3
Description: as §1

cell permeability (fluorescence in the cells) (RAW 264.7 cells [1]) | Sequence | expression level of IL-6 (IL-6) | cell permeability (fluorescence in the cells) (RAW 264.7 cells [2])
excellent cell permeability | AESPLTNRGWNPGKCSTRGRKCCRRKK [SEQ ID NO: 6] | lowest IL-6 expression level | 
 | GKCSTRGRKCCRRKK [SEQ ID NO: 5] |  | excellent cell permeability
